# Laboratory results: the METLIN SMRT retention time set (Domingo-Almenara et al. 2019)
# Test: gradient 5% acetonitrile 3 min, to 50% in 2 min, to 85% in 15 min, held 3 min, 100 µL/min
# Conditions: column: Zorbax Extend-C18 2.1 x 50 mm; eluents: water / acetonitrile, 0.1% formic acid
# Procedure, shortened: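 In both positive and negative ionization mode, a quadrupole time-of-flight mass spectrometer coupled to HPLC analyzed pure standards run in mixtures of ~100 molecules. The Zorbax Extend-C18 column (2.1 × 50 mm, 1.8 μm) was operated at 100 μL/min with water and acetonitrile, each containing 0.1% formic acid. The dead volume was 40 μL and the dwell volume 900 μL. Retention time came from adduct peaks that were computationally picked and individually inspected by hand.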
row,RP-LC retention time [s],SMILES
1,655,CCN(c1ccccc1)S(=O)(=O)c1ccc2[nH]c(=O)[nH]c2c1
2,691,Cc1sc(NC(=O)c2ccco2)c(CN2CCN(c3ccc(F)cc3)CC2)c1C
3,640,O=C(O)c1nnn(-c2ccc3c(c2)OCCO3)c1-c1ccccn1
4,985,Cc1cccc(OCc2nc(-c3ccc4nnn(C)c4c3)no2)c1
5,682,CC(=O)c1cccc(NC(=O)Cn2c(=O)nc(NC3CCCC3)c3ccccc32)c1
6,734,CNCCC(Oc1ccccc1OC)c1ccccc1 (stereo not drawn)
7,736,CCCn1cc(CCNC(=O)Nc2cc(C)cc(C)c2)c2cccnc21
8,1030,CCN1C(=O)COc2cc(-c3noc(C(=O)N4CCN(c5ccccc5)CC4)n3)ccc21
9,662,O=C(NCCc1csc(C2CCCN(C(=O)C3CC3)C2)n1)C1CC1 (stereo not drawn)
10,1090,CN(C(=O)Cn1cccc1-c1nc(-c2ccc3c(c2)OCO3)no1)c1ccccc1
11,986,Cn1cc2c3c(cccc31)CN(C(=O)Cc1ccc(Cl)cc1)CC2
12,1030,Cc1noc(C)c1-c1ccc(S(=O)(=O)NC2CCC(C)CC2)cc1 (stereo not drawn)
13,737,Cc1ccc2c(Nc3ccc(C(C)C)cc3)c(C(=O)N3CCC(C)CC3)cnc2n1
14,918,COc1cc(F)ccc1-c1ccnc2nc(-c3cccs3)nn12
15,722,Cc1cc(C)cc(NC(=O)N2CCCC2c2nncn2C2CCCC2)c1 (stereo not drawn)
16,578,O=S(=O)(C1CC1)N1CCCCC1c1nncn1CC1CC1 (stereo not drawn)
17,868,CCc1ccc2occ(CC(=O)N(Cc3ccc(N(C)C)cc3)C3CCS(=O)(=O)C3)c2c1 (stereo not drawn)
18,1050,Cc1ccc(NC(=O)N2CCCC2c2nc(-c3ccc(F)cc3F)no2)c(C)c1 (stereo not drawn)
19,662,O=C(NCc1ccccc1)C1CCN(c2cnc3nccnc3c2)CC1
20,903,Cc1oc(C2CCN(C(=O)NCc3cccc(F)c3)CC2)nc1C(=O)N1CCOCC1
21,616,CC(C)CC(=O)Nc1ccc(S(=O)(=O)N2CCC(c3ccncc3)CC2)cc1
22,968,COC(=O)c1c(-c2ccc(Cl)cc2)noc1N1CCOCC1

row,RP-LC retention time [s],SMILES
1,644,Cc1cc(C)cc(NC(=O)c2cn3c(n2)CCCC3)c1
2,729,COc1ccccc1CC(=O)N1C[C@@H]2C[C@H]1C[C@@H]2NC(=O)c1ccccc1
3,562,CCNc1cc(N2CCC(CCC(=O)N3CCN(C(C)=O)CC3)CC2)ncn1
4,1020,CCc1ccccc1NC(=O)C1CCCN(S(=O)(=O)c2ccc(OC)c(C)c2)C1 (stereo not drawn)
5,698,CC1CCN(C(=O)CN2C(=O)COc3ccc(C(=O)N4CCCC4)cc32)CC1
6,742,CCN1CCN(c2ccc(NC(=O)c3cccc(C)c3)cn2)C1=O
7,577,CN(C)c1ccc(CCNC(=O)C(=O)NCc2ccc3c(c2)OCO3)cc1
8,657,COc1ccc(OCC(=O)N2CCc3c(c(C(=O)N4CCCC(C(=O)NC5CC5)C4)nn3C)C2)cc1 (stereo not drawn)
9,746,Cc1ccccc1NC(=O)Cn1nc2cc(-c3ccccn3)nc(C)n2c1=O
10,733,CCCC(NC(=O)c1cc(F)cc(F)c1)C(=O)Nc1nc2ccccc2[nH]1 (stereo not drawn)
11,986,Cc1ccc(NS(=O)(=O)c2ccc3c(c2)C(=O)N(C)c2ncccc2O3)c(C)c1
12,706,CCCn1ncc(N2CCC(C(=O)NCc3cccc(F)c3)CC2)cc1=O
13,847,COc1cccc(-c2nc(C3CCN(C(=O)c4n[nH]c5c4CCCC5)CC3)no2)c1
14,614,COCCN1C(=O)CCc2c(C)nc(-c3cccnc3)nc21
15,863,COc1ccc(OC)c(S(=O)(=O)N2CCCC(C(=O)NCCC(C)C)C2)c1 (stereo not drawn)
16,809,Cc1nc(C(=O)Nc2ccccc2)c(C)o1
17,784,Cc1cccc(N(C)C(=O)CN2C(=O)NC3(CCCCC3)C2=O)c1
18,690,CCn1cc(CC(=O)NCc2ccc3c(c2)OCO3)c2cccnc21
19,645,CCOCC(=O)N1CCCC(c2nc(CNC(=O)C3CCC3)cs2)C1 (stereo not drawn)
20,567,CNC(=O)c1cc(N2CCCC2)nc2c(C)cccc12
21,1030,CCc1nc(-c2csc(S(=O)(=O)N3CCCC(C(=O)Nc4ccc(F)cc4)C3)c2)no1 (stereo not drawn)
22,865,O=C(CSc1nc(-c2cccc([N+](=O)[O-])c2)cs1)NCc1ccc2c(c1)OCO2

row,RP-LC retention time [s],SMILES
1,646,CCOc1ccc(C(=O)N2CCCCC2c2nncn2C)cc1OCC (stereo not drawn)
2,909,COC(=O)[C@H](Cc1ccc([N+](=O)[O-])cc1)NC(=O)c1cccc2ccccc12
3,1050,O=C(Cn1cnc2c(sc3nc(-c4ccccc4)ccc32)c1=O)Nc1ccc(F)cc1Cl
4,698,CCOC(=O)C1CCN(c2ncc(C(=O)Nc3ccc(OC)cc3)c(N)n2)CC1
5,918,Fc1ccc(F)c(CN2CCCCC2c2nc(-c3cnccn3)no2)c1 (stereo not drawn)
6,824,O=c1n(CCOc2ccc(F)cc2)nc2c(S(=O)(=O)N3CCCC3)cccn12
7,724,CCNC(=O)C1CCN(Cc2cc3ccccc3n2Cc2ccc(C)cc2)CC1
8,706,CCN1CCn2cc(S(=O)(=O)Nc3ccccc3Cl)cc2C1=O
9,762,Cc1ccc(O)c(NC(=O)c2nc3nc(C)cc(C(F)F)n3n2)c1
10,787,CN(C)c1ccc(-c2nc3cnccn3c2Nc2ccc(F)cc2)cc1
11,1010,Cc1ccc(NC(=O)CSc2nnc3c4cc(-c5ccc(Cl)cc5)nn4ccn23)cc1F
12,642,CCc1ccc(C2=C(C)C(N3CCCN(C(=O)Cn4ccnc4)CC3)=NS2(=O)=O)cc1
13,824,CCN1c2ccc(F)cc2C(=O)NC12CCN(C(=O)c1ccc(C)cc1)CC2
14,927,COc1cccc(-c2noc(C3CCCN3C(=O)Nc3cccc(C#N)c3)n2)c1 (stereo not drawn)
15,1000,O=C(Nc1ccc2c(c1)OCO2)N1CCC2(CC1)Nc1cc(F)ccc1-n1cccc12
16,807,CCOc1ccccc1N(CC)C(=O)C1CCCN(c2ncnc3c2nc2n3CCCCC2)C1 (stereo not drawn)
17,1170,O=S(=O)(c1ccc(Cl)s1)N1CCc2nc(-c3ccccc3)ncc2C1
18,910,Cc1nc(Cn2cccc2C(=O)Nc2ccc(C)c(C)c2)no1
19,830,Cn1nc(C2CCCN2C(=O)C2(c3ccccc3)CC2)n(Cc2ccccc2)c1=O (stereo not drawn)
20,708,COC(=O)c1[nH]c(C)c(C(=O)C(C)N(CC2CCCCC2)C(=O)c2ccc(OC)cc2)c1C (stereo not drawn)
21,727,Cc1ccc(-c2ocnc2C(=O)NCCCN2CCc3ccccc3C2)s1
22,943,O=C(NCc1ccccc1)C1CCCN(c2nc3ccsc3c(=O)n2Cc2ccc(F)cc2)C1 (stereo not drawn)

row,RP-LC retention time [s],SMILES
1,761,COc1cc([C@@H]2c3cc4c(cc3[C@H](O)[C@@H](CO)[C@@H]2C(=O)Nc2cccc(F)c2)OCO4)cc(OC)c1OC
2,784,CC(C)Cn1cc(S(=O)(=O)N2CCc3ccccc3C2)c2cccnc21
3,980,Cc1cc(C)cc(OCc2nc(CCN(C)C(=O)NCc3ccccc3)no2)c1
4,904,CCOC(=O)c1c(C)c(CCC(=O)NC(C)c2ccccc2)n(C)c1C (stereo not drawn)
5,741,COc1ccc(OCC(=O)Nc2c(C(=O)N3CCN(c4ccccn4)CC3)oc3ccccc23)cc1
6,676,COc1ccc(NC(=O)Cn2cnc3nc4c(cc3c2=O)CCCC4)cc1OC
7,952,COc1ccc(NC(=O)Cn2c(C)cc(-c3nnc(-c4ccc(F)cc4)o3)c2C)cc1
8,1020,CCn1cc(C2=CCN(S(=O)(=O)c3cccc(F)c3)CC2)c2cccnc21
9,1400,COc1ccc(-c2nc(NC(=O)c3ccc(-c4nc5ccccc5s4)s3)sc2C)cc1
10,864,COc1nn(C)cc1C(=O)Nc1ccc(Cl)c(Cl)c1
11,728,CCN1CCn2cc(S(=O)(=O)Nc3cccc(Cl)c3)cc2C1=O
12,658,COC(=O)c1ncn2c1C(=O)N(C1CC1)C(C)(C(=O)NCc1ccccc1Cl)C2 (stereo not drawn)
13,797,Cc1ccccc1S(=O)(=O)Nc1ccc(C2(C(=O)NCC3CCCO3)CC2)cc1 (stereo not drawn)
14,705,CNC(=O)N1CCC(C2CCN(C(=O)c3ccc(Cl)s3)C2)CC1 (stereo not drawn)
15,905,CC(C)N(Cc1ccccc1)C(=O)C1CCCN(c2ncnc3c2nc2n3CCCCC2)C1 (stereo not drawn)
16,896,CC(=O)Nc1cccc2c(C(=O)NC(C)c3ccc(C)cc3C)ccnc12 (stereo not drawn)
17,827,COc1ccc(S(=O)(=O)N2CCC(n3cnc4ccc(C)cc4c3=O)CC2)cc1OC
18,844,FC(F)(F)c1ccc(Nc2nc3ccc(Oc4ccnc(-c5ncc(C(F)(F)F)[nH]5)c4)cc3[nH]2)cc1
19,604,C=CCN1CCN(C(=O)[C@@H]2[C@H](c3cc(OC)c(OC)c(OC)c3)c3cc4c(cc3[C@H](O)[C@H]2CO)OCO4)CC1
20,748,c1ccc(-n2nnnc2Oc2ccc(CNCCc3c[nH]c4ccccc34)cc2)cc1
21,609,O=C(Nc1ccc(-c2nnc3n2CCCC3)cc1)C1CC1
22,594,CC(C)c1nccn1C1CN(C(=O)C2CCCCC2)C1
